These results are taken from PMC9974466 (Proceedings of the National Academy of Sciences of the …, 2023).

For test [1], the system named is anti-[P1]PTH(−6 to +3)^Biotin antibody. Kind of test: Epitope characterization ELISA with anti-[P1]PTH(−6 to +3)^Biotin capture antibody. The settings on record: anti-[P1]PTH(−6 to +3)^Biotin capture, anti-PTH(13-34) HRP detection; n = 2 to 4. In kind it is binding. From the text: For additional characterization of our anti-[P1]PTH(−6 to +3) antibody, we biotin-labeled this antibody for use as capture antibody (anti-[P1]PTH(−6 to +3)^Biotin antibody) in combination with the HRP-labeled detection antibody from the intact PTH assay (Immutopics) that is directed against PTH(13-34) (SI Appendix, Fig. S3).
(§1) pro[P1]PTH(−6 to +3) was conjugated to SulfoLink coupling gel via the C-terminal cysteine (PIERCE) for affinity purification of the rabbit antibodies, which were then HRP-labeled using EZ-Link Plus Activated Peroxidase Kit (Thermo Fisher Scientific), following the manufacturer’s protocol. The anti-pro[P1]PTH(−6 to +3) antibody was also conjugated to biotin using EZ-LinkTM Sulfo-NHS-LC-Biotinylation Kit (Thermo Fisher Scientific), following the manufacturer’s protocol, except using 40-fold instead of 20-fold excess of biotin. After biotin coupling, 15% of rabbit serum were added to the biotinylated antibody [anti-pro[P1]PTH(−6 to +3)^Biotin].
100 Defining the epitope of the antibody raised against [P1]PTH(-6 to +15) that was affinity purified with
101 immobilized [P1]PTH(-6 to +3).
102 The anti-[P1]PTH(-6 to +3) antibody was coupled to biotin (anti-[P1]PTH(-6 to +3)Biotin antibody) and
103 used as capture antibody in combination with the detection anti-PTH(13-34) antibody provided in
104 the intact PTH assay (Immutopics). Epitope of the affinity purified anti-[P1]PTH(-6 to +3)Biotin
105 antibody was partially defined by using [P1]PTH(-6 to +34) and [S1]PTH(-6 to +34), as well as
111 recognized by the anti-[P1]PTH(-6 to +3)Biotin antibody resides predominantly in the -6 to -4 region.
(1 picture or pasted object on this page, not shown here)
A general note: In an ELISA, binding on a coated surface is turned into a signal by an enzyme label.

The next test deals with T1, human PTHR1 (Homo sapiens, UniProt Q03431).
T1 construct: expressed in transfected cells; host or cells: GP2.3 (HEK293-derived)
T1 sequence (Q03431 27-593): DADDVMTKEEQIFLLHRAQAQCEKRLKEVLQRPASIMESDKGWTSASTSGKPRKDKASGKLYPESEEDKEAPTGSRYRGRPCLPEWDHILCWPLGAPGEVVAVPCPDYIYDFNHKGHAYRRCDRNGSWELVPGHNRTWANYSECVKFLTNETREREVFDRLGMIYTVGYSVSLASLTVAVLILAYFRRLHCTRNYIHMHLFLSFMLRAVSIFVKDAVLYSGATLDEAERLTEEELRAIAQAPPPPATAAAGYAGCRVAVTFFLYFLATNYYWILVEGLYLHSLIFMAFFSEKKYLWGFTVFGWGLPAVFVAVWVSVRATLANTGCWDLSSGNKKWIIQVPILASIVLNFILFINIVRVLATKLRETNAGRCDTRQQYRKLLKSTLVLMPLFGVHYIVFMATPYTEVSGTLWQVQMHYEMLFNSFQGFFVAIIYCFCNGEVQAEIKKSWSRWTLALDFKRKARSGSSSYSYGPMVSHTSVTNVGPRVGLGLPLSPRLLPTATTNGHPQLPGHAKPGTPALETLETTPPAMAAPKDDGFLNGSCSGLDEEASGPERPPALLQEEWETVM
Kind of test: PTH-stimulated cAMP formation in GP2.3 reporter cells (Glosensor). It counts as cell-based. Conditions: GP2.3 cells; synthetic peptides; mean ± SEM, n = 3; maximum luminescence 20 to 23 min. As for the experimental part:
(§2) SGS-72 cells, i.e., human osteosarcoma SaOS-2 cells stably expressing the Glosensor cAMP reporter, were maintained in modified McCoy’s 5A medium [15% FBS, 1% penicillin/streptomycin, and 1% nonessential amino acids, as described ([29])]. GP2.3 cells, i.e., HEK293 cells stably expressing the human PTHR1 and the Glosensor cAMP reporter, were maintained in DMEM (10% FBS, 1% penicillin/streptomycin), as described ([24]). Cells were seeded into 96‐well white plates (40,000 cells/100µL/well); 24 to 48 h after confluency, the wells were rinsed with 100 µL carbon dioxide-independent culture medium (CIDB; Life Technologies) containing 0.1% bovine serum albumin (BSA), which was then replaced with 90 µL of luciferin (0.5 mM in CIDB) for 15 min before adding 10 µL of increasing concentrations of PTH analogs diluted in CIDB or 10 µL of CIDB, and then measuring cAMP‐dependent luminescence at 2‐min intervals using a PerkinElmer Envision plate reader (PerkinElmer), as described ([24]). […] GP2.3 cells were also used for the evaluation of CM from transfected COS-7 cells; PTH(1-84) served as control.

Test [2] has as its target T2, human PTHR1 (SGS-72 cells, SaOS-2 derived) (Homo sapiens, UniProt Q03431).
T2 construct: SGS-72 cells, i.e., human osteosarcoma SaOS-2 cells stably expressing the Glosensor cAMP reporter; endogenous in cells; host or cells: SGS-72 (human osteosarcoma SaOS-2-derived)
T2 sequence (Q03431 27-593): T1 sequence (Q03431 27-593)
Briefly: PTH-stimulated cAMP formation in SGS-72 reporter cells (Glosensor). It counts as cell-based. Conditions: synthetic peptides, mean ± SEM, n = 3 (Fig. 2B), read-out: EC50 for cAMP formation. As for the experimental part:
as §2
SGS-72 cells were used for assessing PTH-stimulated cAMP formation. 10 µL of increasing concentrations of [S1]PTH(−6 to +34) or [P1]PTH(−6 to +34) before and after incubation with furin were diluted in CIDB buffer.
On the technique in general: Changes in cAMP serve as a functional read-out for many G protein-coupled receptors.

Test [3] concerns anti-pro[P1]PTH^HRP antibody. Briefly: pro[P1]PTH immunoassay with anti-pro[P1]PTH^HRP detection antibody. It counts as binding.
From the text: To allow quantification of pro[P1]PTH in CM and in plasma of our patients with the homozygous P1 mutation, we replaced the detection antibody in an intact PTH assay (Immutopics) with a horseradish peroxidase (HRP)-labeled antibody raised against pro[P1]PTH(−6 to +15), which was affinity purified with pro[P1]PTH(−6 to +3) (anti-pro[P1]PTH^HRP antibody) (Materials and Methods).
as §1, with “+3)^Biotin]. […]” for “+3)^Biotin].”

Entries after “also recorded” stand apart in the source; their conditions may differ. Ends that are not written are not given here.

One may read the EC50 as the concentration needed to bring the measured effect to its halfway point.

Take “PTH(2-34): synthetic amino-terminally shortened peptide (VSEIQLMHNLGKHLNSMERVEWLRKKLQDVHNF-NH2; UniProt P01270 33-65, looked up, fragment)”: in test [1], the “Detection / cross-reactivity (in words)” value is recorded as “only minimal cross-reactivity at very high concentrations”.
On to `CC[C@H](C)[C@H](NC(=O)[C@H](CCC(=O)O)NC(=O)[C@H](CO)NC(=O)[C@@H](NC(=O)[C@@H]1CCCN1)C(C)C)C(=O)N[C@@H](CCC(N)=O)C(=O)N[C@@H](CC(C)C)C(=O)N[C@@H](CCSC)C(=O)N[C@@H](Cc1c[nH]cn1)C(=O)N[C@@H](CC(N)=O)C(=O)N[C@@H](CC(C)C)C(=O)NCC(=O)N[C@@H](CCCCN)C(=O)N[C@@H](Cc1c[nH]cn1)C(=O)N[C@@H](CC(C)C)C(=O)N[C@@H](CC(N)=O)C(=O)N[C@@H](CO)C(=O)N[C@@H](CCSC)C(=O)N[C@@H](CCC(=O)O)C(=O)N[C@@H](CCCNC(=N)N)C(=O)N[C@H](C(=O)N[C@@H](CCC(=O)O)C(=O)N[C@@H](Cc1c[nH]c2ccccc12)C(=O)N[C@@H](CC(C)C)C(=O)N[C@@H](CCCNC(=N)N)C(=O)N[C@@H](CCCCN)C(=O)N[C@@H](CCCCN)C(=O)N[C@@H](CC(C)C)C(=O)N[C@@H](CCC(N)=O)C(=O)N[C@@H](CC(=O)O)C(=O)N[C@H](C(=O)N[C@@H](Cc1c[nH]cn1)C(=O)N[C@@H](CC(N)=O)C(=O)N[C@@H](Cc1ccccc1)C(N)=O)C(C)C)C(C)C` [[P1]PTH(1-34)], for which the values for the concentration for a half-maximal effect (EC50) (on human PTHR1; in test [2]) were 3.2 ± 0.9 nM and 0.5 ± 0.3 nM, respectively.
Consider “PTH(4-34): synthetic amino-terminally shortened peptide (EIQLMHNLGKHLNSMERVEWLRKKLQDVHNF-NH2; UniProt P01270 35-65, looked up, fragment)”, for which the “Detection / cross-reactivity (in words)” value in test [1] is given as “not detected at all”.
Same read-out and setting: for “PTH(3-34): synthetic amino-terminally shortened peptide (SEIQLMHNLGKHLNSMERVEWLRKKLQDVHNF-NH2; UniProt P01270 34-65, looked up, fragment)” the value was “not detected at all”.

B1: SVSEIQ … LMHNLGKHLNSMERVEWLRKKLQDVHNFVALGAPLAPRDAGSQRPRKKEDNVLVESHEKSLGEADKADVNVLTKAKSQ (protein, UniProt P01270 32-115, looked up)
Parathyroid hormone: SVSEIQLMHNLGKHLNSMERVEWLRKKLQDVHNFVALGAPLAPRDAGSQRPRKKEDNVLVESHEKSLGEADKADVNVLTKAKSQ
modifications: Parathyroid hormone
notes: Recombinant PTH(1-84) was from Chugai Pharmaceutical Co., Ltd
As to B1, in test [3] (vs. pro[P1]PTH, up to very high concentrations), the “Detection / cross-reactivity in pro[P1]PTH assay” value is “barely detected; also recorded: minimal even at very high concentrations; also recorded: extremely low”.

B2: pro[P1]PTH: mutant pro-hormone secreted by COS-7 cells expressing prepro[P1]PTH(1-84) and present in patients' plasma (protein, UniProt P01270 26-115, looked up, variant S1P)
pro-form: KSVKKRPVSEIQLMHNLGKHLNSMERVEWLRKKLQDVHNFVALGAPLAPRDAGSQRPRKKEDNVLVESHEKSLGEADKADVNVLTKAKSQ
modifications: pro-form
notes: mutant pro-hormone secreted by COS-7 cells expressing prepro[P1]PTH(1-84) and present in patients' plasma
Regarding B2, in test [3] (capture anti-PTH(39-84), HRP detection, CM standard), the “Half maximum binding of the anti-pro[P1]PTH^HRP detection antibody” value is 1,032 pg/mL. Besides, the Half-maximal binding in test [1] is on record as 1,330 pg/mL.
